Source: patent US8193191B2, “Urotensin II receptor antagonists” (Janssen Pharmaceutica N.V., priority 2006, dated 2012)
Values joined by “and” are separate entries in the source; they are usually repeats but may differ in a detail not shown here. Equal values may be shown once. Read-outs that look alike come from different tables or passages of the source.

Tests used:
[1] = target: T1, endogenous human UII receptor (Homo sapiens, UniProt Q9UKP6); experiment: Human Radioligand Binding Assay ((^125I)-U-II binding to human skeletal muscle myoblasts)
T1 sequence (Q9UKP6 1-389): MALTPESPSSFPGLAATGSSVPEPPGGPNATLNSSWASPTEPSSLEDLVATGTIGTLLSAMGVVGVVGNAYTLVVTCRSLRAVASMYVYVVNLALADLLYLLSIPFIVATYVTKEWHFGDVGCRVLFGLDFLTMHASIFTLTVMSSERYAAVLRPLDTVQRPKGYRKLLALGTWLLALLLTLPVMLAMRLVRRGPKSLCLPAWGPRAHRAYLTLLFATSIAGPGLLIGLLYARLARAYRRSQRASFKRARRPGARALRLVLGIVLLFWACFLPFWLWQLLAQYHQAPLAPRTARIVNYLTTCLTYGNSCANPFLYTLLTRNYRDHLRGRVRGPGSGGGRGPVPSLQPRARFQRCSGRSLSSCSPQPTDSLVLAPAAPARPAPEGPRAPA

[2] = target: T2, rat GPR14 (U-II receptor) (Rattus norvegicus, UniProt P49684); experiment: Rat UII Calcium Mobilization FLIPR Assay; type: cell-based; conditions: for inhibition at 10 µM / inhibition at 50 µM: CHO, 5 min, agonist-induced Ca2+ mobilization (FLIPR), CHO cells with rat UII receptor; for inhibition at 10 µM: 10 μM compound, read-out: % I @ 10; for inhibition at 50 µM: 50 μM compound, read-out: % I @ 50
T2 construct: expressed in transfected cells
T2 sequence (P49684 1-386): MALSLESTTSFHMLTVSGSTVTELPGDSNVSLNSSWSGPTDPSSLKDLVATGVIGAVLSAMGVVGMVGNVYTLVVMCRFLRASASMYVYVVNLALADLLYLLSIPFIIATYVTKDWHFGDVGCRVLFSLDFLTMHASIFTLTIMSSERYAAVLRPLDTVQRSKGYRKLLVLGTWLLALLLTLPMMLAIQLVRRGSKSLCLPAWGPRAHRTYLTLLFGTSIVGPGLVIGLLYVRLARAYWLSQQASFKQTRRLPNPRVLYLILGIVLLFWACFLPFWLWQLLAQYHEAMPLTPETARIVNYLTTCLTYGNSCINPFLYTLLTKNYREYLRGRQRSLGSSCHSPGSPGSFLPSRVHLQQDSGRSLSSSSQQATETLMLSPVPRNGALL
Text: To derive these cells, the complete coding sequence of rat U-II (Genbank Accession No. U32673) was amplified by nested PCR from rat heart marathon-Ready cDNA. […] The PCR products were cloned into pcDNA3 (Invitrogen) digested with EcoR I and Xba I. Clones containing rat U-II receptor were verified by complete sequencing of the U-II receptor insert to ensure a lack of PCR-introduced errors. The constructed vector was transfected into CHO cells by using lipofectamine (GIBCO BRL). CHO cells with high expression of rat U-II receptor were selected and established as stable cell lines by using G418. CHO cells were seeded at 25,000 cells per well into 96-well, black-wall, clear-bottom microtiter plates 24 h before assay. Cells in culture media (DMEM/F12 containing 15 mM HEPES, L-glutamine, pyridoxine hydrochloride; 10% fetal bovine serum; 1 mg/mL G418 sulfate; antibiotic-antimycotic; pH 7.4) were loaded with proprietary dye, from the FLIPR Calcium Assay Kit (Molecular Devices), prepared in assay buffer (Hanks Balanced Salts Solution, 20 mM HEPES, 0.1% BSA, 2.5 mM probenecid, pH 7.4), and incubated for 1 h at 37° C. Calcium mobilization determinations were performed at room temperature (23° C.).

[3] = Inhibition of Acetyl-cyclic[Cys-Phe-Trp-Lys-(2-Nal)-Cys]-NH2 induced Ca2+ mobilization (FLIPR) in CHO cells transfected with rat UII receptor, read-out: IC50
[4] = average value for the compound tested, read-out: Rat UII FLIPR Average IC50
[5] = Inhibition of human UII binding to human skeletal muscle myoblasts containing endogenous human UII receptor

Ki [1] [µM]	inhibition at 10 µM [2] [%]	inhibition at 50 µM [2] [%]	IC50 [2, 3]	IC50 [2, 4] [µM]	Ki [1, 5] [µM]	SMILES
2.9	98	101	1.4 µM	–	–	CCOc1ccc(CN2C(=O)c3cccc(N4CCN([C@H](C)c5ccccc5)CC4)c3C2=O)cc1OC [Cpd 18, 2-(4-ethoxy-3-methoxy-benzyl)-4-[4-(1R)-(1-phenyl-ethyl)-piperazin-1-yl]-isoindole-1,3-dione]
0.068	–	–	–	0.019	–	CCn1cc(S(=O)(=O)NCCC[C@H](c2ccc(OC)c(OC)c2)N2C(=O)c3cccc(N4CCN([C@H](C)c5ccccc5)CC4)c3C2=O)cn1 [Cpd 134, (R)-1-ethyl-1H-pyrazole-4-sulfonic acid (4-(3,4-dimethoxy-phenyl)-4-{1,3-dioxo-4-[4-(1R)-(1-phenyl-ethyl)-piperazin-1-yl]-1,3-dihydro-isoindol-2-yl}-butyl)-amide]
> 0.3	–	–	–	0.12	–	COc1ccc([C@@H](CCCNS(=O)(=O)c2cc(C)sc2C)N2C(=O)c3cccc(N4CCN([C@H](C)c5ccccc5)CC4)c3C2=O)cc1OC [Cpd 131, (R)-2,5-dimethyl-thiophene-3-sulfonic acid (4-(3,4-dimethoxy-phenyl)-4-{1,3-dioxo-4-[4-(1R)-(1-phenyl-ethyl)-piperazin-1-yl]-1,3-dihydro-isoindol-2-yl}-butyl)-amide]
–	99	99	0.046 µM and 0.084 µM	–	0.57	COc1ccc(CN2C(=O)c3cccc(N4CCN([C@H](C)c5ccccc5)CC4)c3C2=O)cc1OC [Cpd 1, 2-(3,4-dimethoxy-benzyl)-4-[4-(1R)-(1-phenyl-ethyl)-piperazin-1-yl]-isoindole-1,3-dione]
> 10	–	–	–	1.4	–	COc1ccc(CN2C(=O)c3cccc(N4CCN(Cc5cccs5)CC4)c3C2=O)cc1OC [Cpd 81, 2-(3,4-dimethoxy-benzyl)-4-(4-thiophen-2-ylmethyl-piperazin-1-yl)-isoindole-1,3-dione]
4	95	99	0.41 µM	–	–	CCC(c1ccccc1)N1CCN(c2cccc3c2C(=O)N(Cc2ccc(OC)c(OC)c2)C3=O)CC1 (centres unmarked) [Cpd 13, 2-(3,4-dimethoxy-benzyl)-4-[4-(1-phenyl-propyl)-piperazin-1-yl]-isoindole-1,3-dione]
–	100	101	0.13 µM	–	0.16	COc1ccc([C@H](C)N2C(=O)c3cccc(N4CCN([C@H](C)c5ccccc5)CC4)c3C2=O)cc1OC [Cpd 3, 2-[(S)-1-(3,4-dimethoxy-phenyl)-ethyl]-4-[4-(1R)-(1-phenyl-ethyl)-piperazin-1-yl]-isoindole-1,3-dione]
0.13	–	–	–	0.064	–	COc1ccc([C@@H](CCNC(=O)OCc2ccccc2)N2C(=O)c3cccc(N4CCN([C@H](C)c5ccccc5)CC4)c3C2=O)cc1OC [Cpd 216, (R)-(3-(3,4-dimethoxy-phenyl)-3-{1,3-dioxo-4-[4-(1R)-(1-phenyl-ethyl)-piperazin-1-yl]-1,3-dihydro-isoindol-2-yl}-propyl)-carbamic acid benzyl ester]
7.2	–	–	–	0.85	–	COc1ccc(CN2C(=O)c3cccc(N4CCN(Cc5ccc(C)o5)CC4)c3C2=O)cc1OC [Cpd 77, 2-(3,4-dimethoxy-benzyl)-4-[4-(5-methyl-furan-2-ylmethyl)-piperazin-1-yl]-isoindole-1,3-dione]
3.6	–	–	–	2.2	–	COc1ccc(CN2C(=O)c3cccc(N4CCN(Cc5ccccc5O)CC4)c3C2=O)cc1OC [Cpd 85, 2-(3,4-dimethoxy-benzyl)-4-[4-(2-hydroxy-benzyl)-piperazin-1-yl]-isoindole-1,3-dione]
–	100	100	0.15 µM	–	0.23	COc1ccc([C@@H](C)N2C(=O)c3cccc(N4CCN([C@H](C)c5ccccc5)CC4)c3C2=O)cc1OC [Cpd 4, (R)-2-[1-(3,4-dimethoxy-phenyl)-ethyl]-4-[4-(1R)-(1-phenyl-ethyl)-piperazin-1-yl]-isoindole-1,3-dione]
0.017	–	–	–	–	–	COc1ccc([C@@H](CCCNS(N)(=O)=O)N2C(=O)c3cccc(N4CCN([C@H](C)c5ccccc5)CC4)c3C2=O)cc1OC [Cpd 141, (R)-N′-[(4-(3,4-dimethoxy-phenyl)-4-{1,3-dioxo-4-[4-(1R)-(1-phenyl-ethyl)-piperazin-1-yl]-1,3-dihydro-isoindol-2-yl}-butyl)]-sulfamide]
–	21	68	25 µM	–	–	COc1ccc(CN2CCN(c3cccc4c3C(=O)N(Cc3ccc(OC)c(OC)c3)C4=O)CC2)cc1OC [Cpd 56, 2-(3,4-dimethoxy-benzyl)-4-[4-(3,4-dimethoxy-benzyl)-piperazin-1-yl]-isoindole-1,3-dione]
–	90	98	1.7 µM	–	–	CCOc1cc(CN2C(=O)c3cccc(N4CCN([C@H](C)c5ccccc5)CC4)c3C2=O)ccc1OC [Cpd 21, 2-(3-ethoxy-4-methoxy-benzyl)-4-[4-(1R)-(1-phenyl-ethyl)-piperazin-1-yl]-isoindole-1,3-dione]
–	–	–	–	1.4	–	COc1ccc(C(CCCNS(=O)(=O)c2csc3ccccc23)N2C(=O)c3cccc(N4CCN([C@H](C)c5ccccc5)CC4)c3C2=O)cc1OC (stereo partly drawn) [Cpd 116, benzo[b]thiophene-3-sulfonic acid (4-(3,4-dimethoxy-phenyl)-4-{1,3-dioxo-4-[4-(1R)-(1-phenyl-ethyl)-piperazin-1-yl]-1,3-dihydro-isoindol-2-yl}-butyl)-amide]
–	62	101	1.9 µM	–	–	Cc1nn(C)c(C)c1CN1C(=O)c2cccc(N3CCN(Cc4ccccc4)CC3)c2C1=O [Cpd 23, 4-(4-benzyl-piperazin-1-yl)-2-(1,3,5-trimethyl-1H-pyrazol-4-ylmethyl)-isoindole-1,3-dione]
–	56	94	7.6 µM	–	–	COc1ccc(CN2C(=O)c3cccc(N4CCN(Cc5ccccc5C#N)CC4)c3C2=O)cc1OC [Cpd 38, 2-{4-[2-(3,4-dimethoxy-benzyl)-1,3-dioxo-2,3-dihydro-1H-isoindol-4-yl]-piperazin-1-ylmethyl}-benzonitrile]

SMILES	Ki [1] [µM]	inhibition at 10 µM [2] [%]	inhibition at 50 µM [2] [%]	IC50 [2, 3]	IC50 [2, 4] [µM]	Ki [1, 5] [µM]
COc1ccc(CN2C(=O)c3c(Cl)ccc(N4CC5CCC(C4)N5Cc4ccccc4)c3C2=O)cc1OC [Cpd 9, 4-(8-benzyl-3,8-diaza-bicyclo[3.2.1]oct-3-yl)-7-chloro-2-(3,4-dimethoxy-benzyl)-isoindole-1,3-dione]	0.66	91	81	0.19 µM	–	–
COc1ccc(CN2C(=O)c3cccc(N4CC5CCC(C4)N5Cc4ccccc4)c3C2=O)cc1OC [Cpd 7, 4-(8-benzyl-3,8-diaza-bicyclo[3.2.1]oct-3-yl)-2-(3,4-dimethoxy-benzyl)-isoindole-1,3-dione]	0.2	89	–	0.22 µM and 0.18 µM	–	–
COc1cc(CN2C(=O)c3cccc(N4CC5CCC(C4)N5Cc4ccccc4)c3C2=O)cc(OC)c1OC [Cpd 26, 4-(8-benzyl-3,8-diaza-bicyclo[3.2.1]oct-3-yl)-2-(3,4,5-trimethoxy-benzyl)-isoindole-1,3-dione]	–	81	94	3.4 µM	–	–
O=C1c2cccc(N3CC4CCC(C3)N4Cc3ccccc3)c2C(=O)N1Cc1ccncc1 [Cpd 39, 4-(8-benzyl-3,8-diaza-bicyclo[3.2.1]oct-3-yl)-2-pyridin-4-ylmethyl-isoindole-1,3-dione]	–	47	101	8.9 µM	–	–
